ChEMBL document CHEMBL1799959, “Cyathane diterpenes from Chinese mushroom Sarcodon scabrosus and their neurite outgrowth-promoting activity” (2011)
The source made the active and inactive calls. The calls are words filed in the database; no cut-off is given here.

Tests used:
[1] = system: PC-12; assay: Neuritogenic activity in rat PC12 cells in serum free medium assessed as potentiation of NGF-induced neurite outgrowth at 25 uM after 24 hrs by light microscopy in presence of 20 ng/ml NGF; type: functional
[2] = system: PC-12; assay: Neuritogenic activity in rat PC12 cells in serum free medium assessed as neurite outgrowth at 25 uM after 24 hrs by light microscopy; type: functional, cell-based
[3] = system: PC-12; assay: Neuritogenic activity in rat PC12 cells in serum free medium assessed as potentiation of NGF-induced neurite outgrowth at 25 uM after 24 hrs by light microscopy in presence of 20 ng/ml NGF relative to NGF; type: functional, cell-based

## C[C@@H](CO)C1=C2[C@H]3C[C@H](O)C(COC(=O)c4ccccc4)=C[C@H](O)[C@]3(C)CC[C@@]2(C)CC1
[1]
  Activity: inactive
[2]
  Activity: inactive

## CC(C)C1=C2[C@H]3C[C@@H](OC(=O)c4ccccc4)C(COC(=O)c4ccccc4)=C[C@H](O)[C@]3(C)CC[C@@]2(C(=O)O)CC1
[1]
  Activity: inactive
[2]
  Activity: inactive

## CC(=O)OC[C@@H](C)C1=C2[C@H]3CC=C(C=O)CC(=O)[C@]3(C)CC[C@@]2(C)CC1
[1]
  Activity: inactive
[2]
  Activity: inactive

## C[C@H](CO)C1=C2C3=CC=C(C=O)C[C@H](O)[C@]3(C)CC[C@@]2(C)CC1 [SARCODONIN A]
[1]
  Activity: 20%
[3]
  Activity: Active
[2]
  Activity: inactive

## C[C@H](CO)C1=C2[C@H]3CC=C(C=O)CC(=O)[C@]3(C)CC[C@@]2(C)CC1 [SARCODONIN G]
[1]
  Activity: 24.9%
[3]
  Activity: Active
[2]
  Activity: inactive

## C[C@@H](CO)C1=C2[C@H]3C[C@H](O)C(COC(=O)c4ccccc4)=C[C@H](O)[C@]3(C)CC[C@@]2(CO)CC1
[1]
  Activity: inactive
[2]
  Activity: inactive

## C[C@@H](CO)C1=C2[C@H]3CC=C(C=O)CC(=O)[C@]3(C)CC[C@@]2(CO)CC1
[1]
  Activity: inactive
[2]
  Activity: inactive
